Our source for the mutagenic call and call values is PubChem BioAssay AID1259408 (Genetic Toxicology Data Bank (GENE-TOX), 2018).

Activity calls are given as the source filed them. The rule behind the calls is not given here.

In this data set the test system is GENE-TOX genotoxicity assays, various organisms and cells. The data set is described as follows: GENE-TOX mutagenicity studies. The conditions noted are these: for call: Assay Type: In vivo carcinogenicity studies. The source says: GENE-TOX provides genetic toxicology (mutagenicity) test data from expert peer review of open scientific literature for more than 3,000 chemicals from the United States Environmental Protection Agency (EPA). GENE-TOX was established to select assay systems for evaluation, review data in the scientific literature, and recommend proper testing protocols and evaluation procedures for these systems.
GENE-TOX covers the years 1991 - 1998. It is no longer updated.
This is an archive assay for GENE-TOX mutagenicity studies.

Setting [1] is: Species/Cell Type: Arabidopsis species, Assay Type: Gene mutation, Assay Code: ARM-, Evaluation Type: Evaluation A (Pre-1980).
Where [2] appears, read: Species/Cell Type: Escherichia coli polA (W3119 vs P3478), Assay Type: Rec-assay, DNA effects (bacterial DNA repair), Assay Code: RE1T, Evaluation Type: Evaluation A (Pre-1980).
Where [3] appears, read: Species/Cell Type: Human diploid fibroblasts, Assay Type: Unscheduled DNA synthesis (UDS) in vitro, DNA effects, Assay Code: UDH-, Evaluation Type: Evaluation A (Pre-1980).
[4] abbreviates: Species/Cell Type: Saccharomyces cerevisiae, Assay Type: Mitotic recombination or gene conversion, Assay Code: YEH+, Evaluation Type: Evaluation A (Pre-1980).
[5] abbreviates: Species/Cell Type: Salmonella typhimurium (one or more of the five standard strains: TA98, TA100, TA1535, TA1537, and TA1538), Assay Type: Histidine reverse gene mutation, Ames assay, Assay Code: SALT, Evaluation Type: Evaluation A (Pre-1980).
Where [6] appears, read: Species/Cell Type: Allium cepa, Assay Type: Chromosome aberrations, Assay Code: ALC+, Evaluation Type: Evaluation A (Pre-1980).
Setting [7] is: Species/Cell Type: Human lymphocytes or leukocytes, Assay Type: Chromosome aberrations in vitro, Assay Code: CY7-, Evaluation Type: Evaluation A (Pre-1980).
Setting [8] is: Species/Cell Type: Salmonella typhimurium (one or more of the five standard strains: TA98, TA100, TA1535, TA1537, and TA1538), Assay Type: Histidine reverse gene mutation, Ames assay, Assay Code: SAL+, Evaluation Type: Evaluation A (Pre-1980).
Setting [9] is: Species/Cell Type: Bacillus subtilis (H17 vs M45), Assay Type: Rec-assay, spot test, DNA effects (bacterial DNA repair), Assay Code: REW-, Evaluation Type: Evaluation A (Pre-1980).

Regarding `CN(Cc1cnc2nc(N)nc(N)c2n1)c1ccc(C(=O)N[C@@H](CCC(=O)O)C(=O)O)cc1`, the mutagenic call under setting [1] is “inactive; negative”; the mutagenic call (Species/Cell Type: Escherichia coli WP2, Assay Type: Tryptophan reverse gene mutation, Assay Code: WP2+, Evaluation Type: Evaluation A (Pre-1980)) was “active; positive”; the mutagenic call under setting [2] is on record as “no conclusion”; the mutagenic call under setting [3] was “inactive; negative”; the mutagenic call (Species/Cell Type: Human lymphocytes, Assay Type: Sister-chromatid exchange (SCE) in vivo, Assay Code: SCY+, Evaluation Type: Evaluation B (Post-1980)) was “active; positive”; the mutagenic call (Species/Cell Type: Human, Sex: Male, Assay Type: Sperm morphology, Assay Code: SPH+, Evaluation Type: Evaluation A (Pre-1980)) is “active; positive”. The mutagenic call was “active; positive” (Species/Cell Type: Mammalian oocytes or early embryo, Assay Type: Chromosome aberrations in vivo, Assay Code: CYO+D, Dose Response: With dose response, Evaluation Type: Evaluation A (Pre-1980)); “active; positive” (Species/Cell Type: Mammalian polychromatic erythrocytes, Assay Type: Micronucleus test, chromosome aberrations, Assay Code: MNT+, Evaluation Type: Evaluation A (Pre-1980)); “active; positive” (Species/Cell Type: Mouse (C3H/10T1/2) cells, Assay Type: Cell transformation, Assay Code: CTH+D, Dose Response: With dose response, Evaluation Type: Evaluation A (Pre-1980)); “active; positive” (Species/Cell Type: Mouse lymphoma (L5178Y) cells, Assay Type: Forward gene mutation at the thymidine kinase (TK) locus, chromosome aberrations, Assay Code: L51+, Evaluation Type: Evaluation A (Pre-1980)); “active; positive” (Species/Cell Type: Neurospora crassa, Assay Type: Aneuploidy, chromosome aberrations, Assay Code: NEN+, Evaluation Type: Evaluation A (Pre-1980)); “active; positive” (Species/Cell Type: Nonhuman, Assay Type: Chromosome aberrations in vitro, Assay Code: CY&+D, Dose Response: With dose response, Evaluation Type: Evaluation A (Pre-1980)). In addition, the mutagenic call reads like this: (Species/Cell Type: Nonhuman, Assay Type: Sister-chromatid exchange (SCE) in vitro, Assay Code: SC2+, Evaluation Type: Evaluation A (Pre-1980)) “active; positive”; (Species/Cell Type: Rodents, Sex: Male, Assay Type: Dominant lethal test, Assay Code: DLTT, Evaluation Type: Evaluation A (Pre-1980)) “no conclusion”; under setting [4], “active; positive”; under setting [5], “no conclusion”; (Species/Cell Type: Serratia marcesens, Assay Type: Reverse gene mutation, host-mediated assay, Assay Code: HMC+, Evaluation Type: Evaluation A (Pre-1980)) “active; positive”; (Species/Cell Type: Syrian hamster embryo (SHE) cells, Assay Type: Cell transformation, clonal assay, Assay Code: CTC-, Evaluation Type: Evaluation A (Pre-1980)) “inactive; negative”. For the same compound, the call (Species/Cell Type: Nonhuman, Assay Code: CCG-L, Evaluation Type: Evaluation A (Pre-1980)) was “inactive; negative”.
In the case of `CCN(CC)C(=O)[C@@H]1C=C2c3cccc4[nH]cc(c34)C[C@H]2N(C)C1`, the mutagenic call reads like this: under setting [6], “active; positive”; under setting [1], “inactive; negative”; (Species/Cell Type: Drosophila melanogaster, Assay Type: Aneuploidy, partial sex chromosome loss, chromosome aberrations, Assay Code: DAP+M, Evaluation Type: Evaluation A (Pre-1980)) “active; positive”; (Species/Cell Type: Drosophila melanogaster, Assay Type: Aneuploidy, sex chromosome gain, chromosome aberrations, Assay Code: DAG+M, Evaluation Type: Evaluation A (Pre-1980)) “active; positive”; (Species/Cell Type: Drosophila melanogaster, Assay Type: Aneuploidy, whole sex chromosome loss, chromosome aberrations, Assay Code: DAC+M, Evaluation Type: Evaluation A (Pre-1980)) “active; positive”; (Species/Cell Type: Drosophila melanogaster, Assay Type: Sex-linked recessive lethal gene mutation, Assay Code: SRL+, Evaluation Type: Evaluation A (Pre-1980)) “active; positive”. The mutagenic call by setting is: (Species/Cell Type: Drosophila melanogaster, Sex: Male, Assay Type: Heritable translocation test, chromosome aberrations, Assay Code: DHT-, Evaluation Type: Evaluation A (Pre-1980)) “inactive; negative”; (Species/Cell Type: Hordeum vulgare (barley), Assay Type: Chromosome aberrations, Assay Code: HOC+, Evaluation Type: Evaluation A (Pre-1980)) “active; positive”; under setting [7], “inactive; negative”; (Species/Cell Type: Human lymphocytes or leukocytes, Assay Type: Chromosome aberrations in vivo, Assay Code: CY8T, Evaluation Type: Evaluation A (Pre-1980)) “no conclusion”; (Species/Cell Type: Mammalian germ cells, Sex: Male, Assay Type: Chromosome aberrations in vivo, Assay Code: CY9-, Evaluation Type: Evaluation A (Pre-1980)) “inactive; negative”; (Species/Cell Type: Mammalian oocytes or early embryo, Assay Type: Chromosome aberrations in vivo, Assay Code: CYO-, Evaluation Type: Evaluation A (Pre-1980)) “inactive; negative”. Further, the mutagenic call runs as follows: (Species/Cell Type: Mammalian polychromatic erythrocytes, Assay Type: Micronucleus test, chromosome aberrations, Assay Code: MNTT, Evaluation Type: Evaluation A (Pre-1980)) “no conclusion”; (Species/Cell Type: Nonhuman, Assay Type: Chromosome aberrations in vitro, Assay Code: CY&-, Evaluation Type: Evaluation A (Pre-1980)) “inactive; negative”; (Species/Cell Type: Rodents, Sex: Male, Assay Type: Dominant lethal test, Assay Code: DLT-, Evaluation Type: Evaluation A (Pre-1980)) “inactive; negative”; (Species/Cell Type: Vicia faba, Assay Type: Chromosome aberrations, Assay Code: VIC-, Evaluation Type: Evaluation A (Pre-1980)) “inactive; negative”.
For `COc1ccc([N+](=O)[O-])cc1N`, for the setting “Species/Cell Type: Nonhuman, Assay Code: CCG+, Evaluation Type: Evaluation A (Pre-1980)”, the call is “active; positive”. Further, the mutagenic call under setting [8] is “active; positive”.
As for `Cc1ccc2cc3c(ccc4ccccc43)c3c2c1CC3=O`, the mutagenic call runs as follows: (Species/Cell Type: Chinese hamster lung (V79) cells, Assay Type: Forward gene mutation at the HPRT or ouabain locus, Assay Code: V79+, Evaluation Type: Evaluation A (Pre-1980)) “active; positive”; (Species/Cell Type: Salmonella typhimurium (one or more of the five standard strains: TA98, TA100, TA1535, TA1537, and TA1538), Assay Type: Histidine reverse gene mutation, Ames assay, Assay Code: SAL+*, Activation: With metabolic activation, Evaluation Type: Evaluation A (Pre-1980)) “active; positive”. In addition, the call (Species/Cell Type: Nonhuman, Assay Code: CCGT, Evaluation Type: Evaluation A (Pre-1980)) was “no conclusion”.
As to `Cc1ccc(N2CC[N+](C)([O-])CC2)c2c(=O)c3ccc(Cl)cc3sc12`, under setting [5], the mutagenic call is “no conclusion”.
As to `CCCCc1ccc(C(=O)O)nc1`, the mutagenic call under setting [9] is “inactive; negative”.
As for `CC(C)(C)N1CC1`, the mutagenic call (Species/Cell Type: Schizosaccharomyces pombe, Assay Type: Reverse gene mutation, Assay Code: YEZ+, Evaluation Type: Evaluation A (Pre-1980)) was “active; positive”.
With `[Cl][Zn][Cl]`, the mutagenic call reads like this: under setting [9], “inactive; negative”; under setting [7], “inactive; negative”; (Species/Cell Type: Mouse, Sex: Male, Assay Type: Sperm morphology, Assay Code: SPI-, Evaluation Type: Evaluation A (Pre-1980)) “inactive; negative”; under setting [8], “active; positive”; (Species/Cell Type: Salmonella typhimurium, Assay Type: Forward and reverse gene mutation, host-mediated assay, Assay Code: HMA+, Evaluation Type: Evaluation A (Pre-1980)) “active; positive”; (Species/Cell Type: Syrian hamster embryo (SA7/SHE) cells, Assay Type: Cell transformation, viral enhanced, Assay Code: CT7+, Evaluation Type: Evaluation A (Pre-1980)) “active; positive”.
For `BrBr`, under setting [6], the mutagenic call is “active; positive”.
Turning to `CN(N=O)C(C)(C)C`, for the setting “Species/Cell Type: Chinese hamster lung (V79) cells, Assay Type: Forward gene mutation at the HPRT or ouabain locus, Assay Code: V79-, Evaluation Type: Evaluation A (Pre-1980)”, the mutagenic call is “inactive; negative”.
`CCCCN(CC(O)CC(=O)O)N=O` (centres undefined): under setting [5], the mutagenic call is “no conclusion”.
For the compound `COP(=O)(OC)O/C(C)=C/C(=O)OC(C)c1ccccc1` (centres undefined), the mutagenic call is “no conclusion” (Species/Cell Type: Bacillus subtilis (H17 vs M45), Assay Type: Rec-assay, spot test, DNA effects (bacterial DNA repair), Assay Code: REWT, Evaluation Type: Evaluation A (Pre-1980)); “inactive; negative” (Species/Cell Type: Escherichia coli WP2 UVRA, Assay Type: Tryptophan reverse gene mutation, Assay Code: WPU-*, Activation: With metabolic activation, Evaluation Type: Evaluation A (Pre-1980)); “no conclusion” under setting [2]; “inactive; negative” under setting [3]; “active; positive” under setting [4]; “inactive; negative” (Species/Cell Type: Salmonella typhimurium (one or more of the five standard strains: TA98, TA100, TA1535, TA1537, and TA1538), Assay Type: Histidine reverse gene mutation, Ames assay, Assay Code: SAL-, Evaluation Type: Evaluation A (Pre-1980)).
On to `O=P(O)(O)CCCl`, for which, under “Species/Cell Type: Allium cepa, Assay Type: Chromosome aberrations, Assay Code: ALC+D, Dose Response: With dose response, Evaluation Type: Evaluation A (Pre-1980)”, the mutagenic call is “active; positive”.
